Assay results taken from paper PMC12562324, “Surfactin Structural Variants Differentially Modulate Plant Immune Responses” (Biomolecules, 2025).

What was measured:
Assay type in all cases: cell-based
[1] = test system: Arabidopsis thaliana Col-0 roots; assay: [ROS]intra burst in roots, DCFH-DA fluorescent probe; details: mix of homologues, 10 µM, fold change at 20 min vs mock (DMSO 0.1%); n = 9 from three independent experiments; Figure 2B,C
Description: For cytoplasmic hydrogen peroxide (reflecting cytosolic/intracellular ROS and referred to hereafter as [ROS]intra) measurement in roots, 15 mm long Arabidopsis thaliana root segments, isolated from different two-week-old plants, were placed in a well (one root/well) of a microplate (96 Flat Black-Greiner Bio-One^TM CellStar^TM, Thermo Fisher Scientific, Hampton, VA, USA) filled with sterile water. After overnight incubation, roots were treated with 50 µM DCFH-DA (dichloro-dihydro-fluorescein diacetate; ACROS Organics, Geel, Belgium) for 10 min in the dark and rinsed with PBS, and next, wells were filled with CLP/mock solution. Fluorescence measurements (excitation wavelength 492 nm, emission wavelength 530 nm) were conducted by a Spark® (Tecan, Männedorf, Switzerland) microplate reader, using nine readings per well. Data, expressed as relative fluorescence increase, were obtained by subtracting the fluorescence measured at the first time point from the fluorescence measured at each time point (with the first time point being taken as 0). The fluorescence fold increase was defined for each repeat as the ratio between the fluorescence increase obtained at one time point for treatments and the mean fluorescence increase obtained at the same time point in mock-treated tissues.

[2] = test system: Arabidopsis thaliana root protoplasts; assay: NO burst in root protoplasts, DAF-DA probe; details: 10 µM, fold change at 20 min vs mock; n = 12; Figure 3C; in roots Srf and Liche increased NO, Pumi had no impact
Description: Two-week-old Arabidopsis thaliana seedling roots (from 27 mg seeds) were collected and were cut into 1–2 mm segments and incubated in a protoplasting solution (20 mM MES pH 5.7, 0.4 M mannitol, 20 mM KCl, 10 mM CaCl2, 0.1% (w/v) BSA, 1.5% (w/v) cellulase R10 (Duchefa Biochemie, Haarlem, The Netherlands), 0.4% (w/v) macerozyme R10 (Duchefa Chimie)) for 3 h at room temperature and in the dark. After incubation, 1 mL of solution A (154 mM NaCl, 5 mM KCl, 125 mM CaCl2, 4 mM MES, pH = 5.7) was added inside. The suspension was agitated gently and filtered by a 70 µm pore filter to remove extra root debris. Filtered suspension was centrifuged at 850 g for 6 min at room temperature, and the pelleted protoplasts were rinsed three times with solution B (4 mM MES pH 5.7, 154 mM NaCl, 125 mM CaCl2, 5 mM KCl) before being resuspended in solution C (2 mM MES pH 5.7, 0.5 M mannitol, 20 mM KCl, 2 mM CaCl2) at a working concentration of 1–2 × 10^5 cells per mL. For the detection of intracellular NO, roots were processed as described above and 200 µL sterile water was replaced by 200 µL 5 μM DAF-DA in a buffered solution (10 mM Tris/HCl, pH = 7.4). Roots were incubated at room temperature for 1 h in the absence of light and then washed 3 times with Tris/HCl (10 mM, pH = 7.4). The fluorescence emitted by DAF-DA was detected by excitation at 495 nm and emission at 515 nm. Experiments where NO was measured after pretreatment with the calcium channel blocker or calcium chelator included an additional step where LaCl3 (10 mM; Merck Chemicals SA, Hoeilaart, Belgium) or EGTA (1 mM; Merck Chemicals SA, Hoeilaart, Belgium) was added three minutes before treatments. Data were processed as described above for ROS. For NO measurements in protoplasts, the suspension was incubated in the same conditions before being distributed (50 µL) in microplate wells and treated with the CLPs at a 10 µM final concentration or with 0.1% DMSO as a mock.

[3] = test system: Arabidopsis thaliana Col-0 root protoplasts; assay: Calcium influx ([Ca2+]cyt) in root protoplasts, Fluo-4 AM probe; details: 10 µM, Fluo-4 normalized fluorescence (F/F0), within first 30 min; n = 6; Figure 4A,B
Description: Two-week-old Arabidopsis thaliana seedling roots (from 27 mg seeds) were collected and were cut into 1–2 mm segments and incubated in a protoplasting solution (20 mM MES pH 5.7, 0.4 M mannitol, 20 mM KCl, 10 mM CaCl2, 0.1% (w/v) BSA, 1.5% (w/v) cellulase R10 (Duchefa Biochemie, Haarlem, The Netherlands), 0.4% (w/v) macerozyme R10 (Duchefa Chimie)) for 3 h at room temperature and in the dark. After incubation, 1 mL of solution A (154 mM NaCl, 5 mM KCl, 125 mM CaCl2, 4 mM MES, pH = 5.7) was added inside. The suspension was agitated gently and filtered by a 70 µm pore filter to remove extra root debris. Filtered suspension was centrifuged at 850 g for 6 min at room temperature, and the pelleted protoplasts were rinsed three times with solution B (4 mM MES pH 5.7, 154 mM NaCl, 125 mM CaCl2, 5 mM KCl) before being resuspended in solution C (2 mM MES pH 5.7, 0.5 M mannitol, 20 mM KCl, 2 mM CaCl2) at a working concentration of 1–2 × 10^5 cells per mL. Calcium measurements were also performed on protoplasts with the Fluo-4 AM probe. Protoplasts isolated from roots of Arabidopsis thaliana Col-0 were incubated for 1 h with 5 µM of Fluo-4 AM (Thermo Fisher Scientific, Hampton, VA, USA) (from a 5 mM stock solution in DMSO). The suspension was then centrifuged at 750 g, and the supernatant was discarded to eliminate the remaining free fluo-4 AM. The protoplasts were resuspended in fresh solution C and were incubated for 1 h. Microplates (96 Flat Black-Greiner Bio-One^TM CellStar^TM, Fischer Scientific) were loaded with 150 µL of protoplast solution per well. After the addition of 50 µL of 4-times-concentrated treatment, the fluorescence was recorded every 15 s using a Spark® microplate reader (Tecan, Männedorf, Switzerland) with an excitation filter at 485 ± 20 nm and an emission filter at 535 ± 25 nm. The values obtained were then converted as normalized fluorescence increase (F/F0) by dividing the fluorescence measured at each time point (F) by the fluorescence measured at the first time point (F0).

| Substance | [ROS]intra production in roots vs mock [1] | NO burst in root protoplasts, trend compared to roots [2] | [Ca2+]cyt increase in root protoplasts [3] |
| --- | --- | --- | --- |
| lichenysin | induced a significantly higher production of [ROS]intra | very similar trend | fast increase in [Ca^2+]cyt |
| pumilacidin | did not retain any significant triggering activity | very similar trend | not significant |
| surfactin [Srf] | induced a significantly higher production of [ROS]intra | very similar trend | fast increase in [Ca^2+]cyt |
